This assay relates to M. tuberculosis H37Rv growth inhibition. The assay can be described thus: Confirmatory growth inhibition assay against Mycobacterium tuberculosis H37Rv, potency (AID 1949).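 Note: bacteria grown 7 days with compound before Alamar blue readout.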

Our source for the IC50 values is PubChem BioAssay AID1949 (Southern Research Institute, 2009).

Converted amounts (≈) assume the structure as drawn. Results filed as inconclusive are left out. The source made the active and inactive calls. The rule behind the calls is not given here.

As usually defined, the IC50 is the midpoint of a concentration-inhibition curve.

With `COc1ccccc1-c1c(C)oc2cc(OCc3ccccc3)ccc2c1=O`, the IC50 was 9.15 µg/mL (≈ 24.6 µM).
For `CC(=O)OCC#CCSc1nnc(-c2ccc(Br)cc2)o1` the value was below 0.1 µg/mL; for `CCOC(=O)C1CCN(C2=NC(=O)/C(=C\c3ccc(Cl)cc3Cl)S2)CC1`, 0.41 µg/mL (≈ 0.992 µM).
Under `O=C(CSc1nnc(-c2ccncc2)o1)Nc1ccc(Cl)cn1` stands 5.59 µg/mL (≈ 16.1 µM); under `CC(C)(C)c1cc(Cl)c(O)c(NC(=S)NC(=O)c2ccc(Cl)cc2)c1`, below 0.1 µg/mL; under `OC(CNC1CCCC1)Cn1c2ccccc2c2ccccc21` (stereo not given), 8.93 µg/mL (≈ 29 µM).
Under `O=c1c2c(-c3ccc(Cl)cc3)csc2nc2c3ccccc3c(NCCN3CCOCC3)nn12` stands 11.2 µg/mL (≈ 22.8 µM); under `COc1cc(/C=C/c2ccc3cccc(O)c3n2)cc([N+](=O)[O-])c1O`, 0.41 µg/mL (≈ 1.21 µM); under `Cc1ccc(-n2cc(-c3ccccc3)c3c(NCc4cccnc4)ncnc32)cc1`, 3.25 µg/mL (≈ 8.3 µM).
Regarding `Cc1ccc(NC(=S)Nc2cc(C)[nH]n2)c(Cl)c1`, the half-inhibitory concentration (IC50) is 22.2 µg/mL (≈ 79.2 µM).
For `CC(C)OC(=O)COc1cc(O)c2c(=O)cc(-c3ccccc3)oc2c1` the value was 19.6 µg/mL (≈ 55.2 µM).
`COC(=O)c1ccc(CSc2nnc(-c3ccccc3)o2)o1`: the IC50 was > 50 µg/mL (inactive).
Under `COc1ccc(CNCCC(c2ccc(OC)cc2)c2ccccc2OC)cc1` (stereo not given) stands 8 µg/mL (≈ 20.4 µM); under `CCN(CC)c1ccc(-n2nc3cc(C)c(N)cc3n2)c(C)c1`, 13.1 µg/mL (≈ 42.3 µM).
For `O=C(CSc1nnc(-c2ccccc2)o1)Nc1ccc2ccccc2c1` the value was 1.02 µg/mL (≈ 2.82 µM); for `Cc1nc(Nc2nc3c(c(=O)[nH]2)CCCC3)nc2c(C)cccc12`, 28.1 µg/mL (≈ 87.4 µM); for `CCN(CC)S(=O)(=O)c1ccc(Cl)c(C(=O)Oc2cccc3cccnc23)c1`, 2.45 µg/mL (≈ 5.85 µM).
For `Cc1cc(C)cc(COc2ccc3c(C)c(CCC(=O)O)c(=O)oc3c2C)c1` the value was 0.32 µg/mL (≈ 0.841 µM); for `Brc1ccc2ncnc(Nc3ccc(N4CCCC4)cc3)c2c1`, below 0.1 µg/mL.
For `CC(C)(C)c1cc(Cl)ccc1OCCn1ccnc1`, the IC50 was 1.94 µg/mL (≈ 6.96 µM).
For `CCC(C)c1ccc(O)c(NC(=S)NC(=O)c2cccnc2)c1` (stereo not given) the value was below 0.1 µg/mL; for `COc1cc(/C=C/c2ccc3cccc(OC)c3n2)c(Cl)cc1OC(C)=O`, 35.3 µg/mL (≈ 92 µM).
Under `COc1ccc(-c2csc3ncn(C(C)C(=O)OC4CCCCC4)c(=O)c23)cc1` (stereo not given) stands 10.9 µg/mL (≈ 26.5 µM); under `CCN(CC)c1ccc(NC(=O)C23CC4CC(CC(C4)C2)C3)cc1`, > 50 µg/mL (inactive).
For `Cc1ccc(-c2ccc(/C=C/C(=O)c3ccco3)o2)cc1` the value was 1.71 µg/mL (≈ 6.14 µM); for `CSc1cccc(NC(=O)C2CCN(C(=O)c3ccc(-c4ccccc4)cc3)CC2)c1`, 5.73 µg/mL (≈ 13.3 µM).
Consider `C/C=C/c1ccc(OCCCOc2cccc3ccc(C)nc23)c(OC)c1`, for which the IC50 is 16.8 µg/mL (≈ 46.3 µM).
With `CC(C)(C)c1ccc(C(=O)N2CCC(C(=O)N3CCN(c4cccc(Cl)c4)CC3)CC2)cc1`, the IC50 is > 50 µg/mL (inactive).
Under `Cc1cc(OCCOCCn2ccnc2)cc(C(C)C)c1` stands > 50 µg/mL (inactive).
Under `Cc1cccc(N2CCN(C(=O)c3ccc(-c4ccccc4)cc3)CC2)c1C` stands 2.34 µg/mL (≈ 6.32 µM).
Under `OC(COc1ccc2ccccc2c1)CN1CCCN(CC(O)COc2ccc3ccccc3c2)CC1` (stereo not given) stands 0.73 µg/mL (≈ 1.46 µM); under `NC(N)=Nc1nc(-c2ccccc2)c2cc(F)ccc2n1`, 7.61 µg/mL (≈ 27.1 µM); under `COC(=O)COc1cccc(NC(=O)c2cccc(C)c2)c1`, 2.85 µg/mL (≈ 9.52 µM).
With `Cc1c(C(=O)NC(=S)Nc2ccc(Oc3ccc(Cl)cc3)cc2)cccc1[N+](=O)[O-]`, the half-inhibitory concentration (IC50) is 1.49 µg/mL (≈ 3.37 µM).
Under `CCC(C)(C)c1ccc(OCCCn2ccnc2)cc1` stands 1.92 µg/mL (≈ 7.05 µM); under `Oc1ccc(Br)c2cccnc12`, below 0.1 µg/mL.
Under `CN(C)CC1CC(C(C)(C)C)CCC1=O` (stereo not given) stands 2.45 µg/mL (≈ 11.6 µM).
`Nc1ccccc1NCCOc1ccccc1`: the IC50 was 1.01 µg/mL (≈ 4.42 µM).
For `CCCCOc1ccc(C2c3c(oc4ccc(Br)cc4c3=O)C(=O)N2CCCN2CCOCC2)cc1` (stereo not given) the value was 3.77 µg/mL (≈ 6.79 µM); for `Cc1nn(-c2ccccc2)c(C)c1N1C(=O)c2cccc3cc([N+](=O)[O-])cc(c23)C1=O`, 0.15 µg/mL (≈ 0.364 µM); for `CC(C)(C)c1ccc(C(=O)NC(=S)N2CCCC2)cc1`, 1.35 µg/mL (≈ 4.65 µM).
Turning to `CCC(=O)Oc1ccc(C(=O)Nc2cc3oc4ccccc4c3cc2OC)cc1`, the 50% inhibitory concentration (IC50) is 1.46 µg/mL (≈ 3.75 µM).
For `CCOC(=O)Cc1c(C)nc2c(-c3cccc(Br)c3)c[nH]n2c1=O`, the IC50 was 1.69 µg/mL (≈ 4.33 µM).
Under `c1ccc2c(C(c3ccncc3)c3c[nH]c4ccccc34)c[nH]c2c1` stands 12.2 µg/mL (≈ 37.8 µM).
Under `COc1ccccc1NC(=O)CSc1nc2cc3ccccc3cc2[nH]1` stands 3.08 µg/mL (≈ 8.47 µM); under `CCOC(=O)c1cnc2c(C)c(C)ccc2c1NCc1ccco1`, 3.91 µg/mL (≈ 12.1 µM).
Under `O=C(Nc1cccc(Cl)c1)c1cc(Br)ccc1Cl` stands 1.53 µg/mL (≈ 4.43 µM); under `CCCC(=O)N1CCN(c2ccc(NC(=O)c3ccc(-c4ccc(Cl)cc4)o3)cc2Cl)CC1`, 1.4 µg/mL (≈ 2.88 µM).
As for `Cc1ccc(N2C(=O)c3cccc4c(N5CCN(C)CC5)ccc(c34)C2=O)c2cccnc12`, the half-maximal inhibitory concentration (IC50) was 49.3 µg/mL (≈ 113 µM).
Under `CC(=O)Oc1c(/C=C(\C#N)C(N)=O)[nH]c2ccccc12` stands 5.98 µg/mL (≈ 22.2 µM).
